Experimental findings from patent publication US7456133B2, “Substituted arylketones” (Bayer CropScience AG, priority 2001, dated 2008) are described below.

Molecules are shown by their SMILES.

In general, chromatographic logP refers to a lipophilicity value derived from retention on a column. Low readings indicate lower lipophilicity, high ones higher lipophilicity.

The first data set in a line: Log P by reversed-phase HPLC (C 18), acidic range. It counts as physicochemical. Conditions: Table 1, labelled a): acidic range, 0.1% aqueous phosphoric acid/acetonitrile gradient, 43° C. The method, then: Log P values given in the tables were determined in accordance with EEC Directive 79/831 Annex V.A8 by HPLC (High Performance Liquid Chromatography) using a reversed-phase column (C 18). Temperature: 43° C. (a) Mobile phases for the determination in the acidic range: 0.1% aqueous phosphoric acid, acetonitrile; linear gradient from 10% acetonitrile to 90% acetonitrile—the corresponding measurement results in Tables 1 and 2 are labelled^a).
Regarding `O=C1CCCC(=O)C1C(=O)c1ccc(Cl)c(CNC(=S)Nc2ccccc2)c1Cl` [Example I-2-9], the “log P” value is listed as “log P = 3.05^a)”.
The same measure, in the same setting: then `CC(C)NC(=O)N(Cc1c(Cl)ccc(C(=O)C2C(=O)CCCC2=O)c1Cl)C(C)C` [Example I-2-10], with “log P = 2.86^a)”.
Same read-out and setting: then `CC(C)NC(=O)N(Cc1c(Cl)ccc(C(=O)c2cnn(C)c2O)c1Cl)C(C)C` [Example I-2-11], with “log P = 2.02^a)”.
The same measure, in the same setting: then `CC(C)N(Cc1c(Cl)ccc(C(=O)C2C(=O)CCCC2=O)c1Cl)C(N)=O` [Example I-2-12], with “log P = 2.03^a)”.
On to `COCC(=O)NCCOc1c(Cl)ccc(C(=O)C2C(=O)CCCC2=O)c1Cl` [Example I-2-13], for which the “log P” value is recorded as “log P = 2.12^a)”.
As for `CC(C)N(Cc1c(Cl)ccc(C(=O)c2cnn(C)c2O)c1Cl)C(N)=O` [Example I-2-14], the “log P” value is on record as “log P = 1.32^a)”.
Same read-out and setting: then `CCNC(=O)N(Cc1c(Cl)ccc(C(=O)C2C(=O)CCCC2=O)c1Cl)C(C)C` [Example I-2-15], with “log P = 2.33^a)”.
As for `CCNC(=O)N(Cc1c(Cl)ccc(C(=O)c2cnn(C)c2O)c1Cl)C(C)C` [Example I-2-16], the “log P” value is reported as “log P = 1.42^a)”.
Same read-out and setting: then `CC(C)N(Cc1c(Cl)ccc(C(=O)C2C(=O)CCCC2=O)c1Cl)C(=O)N(C)C` [Example I-2-17], with “log P = 2.82^a)”; and `CC(C)N(Cc1c(Cl)ccc(C(=O)c2cnn(C)c2O)c1Cl)C(=O)N(C)C` [Example I-2-18], with “log P = 2.00^a)”.
Same read-out and setting: to `Cc1ccccc1NC(=O)NCc1c(Cl)ccc(C(=O)c2cnn(C)c2O)c1Cl` [Example I-2-19] belongs “log P = 1.95^a)”; to `CN(C)C(=O)NCc1c(Cl)ccc(C(=O)C2C(=O)CCCC2=O)c1Cl` [Example I-2-21], “log P = 1.87^a)”; to `CC(C)NC(=O)NCc1c(Cl)ccc(C(=O)c2cnn(C)c2O)c1Cl` [Example I-2-22], “log P = 1.35^a)”.
On the same count and under the same terms, to `CN(C)C(=O)NCc1c(Cl)ccc(C(=O)c2cnn(C)c2O)c1Cl` [Example I-2-23] belongs “log P = 1.13^a)”.
In the case of `CN(C)C(=O)N(Cc1c(Cl)ccc(C(=O)C2C(=O)CCCC2=O)c1Cl)C1CC1` [Example I-2-24], the “log P” value is given as “log P = 2.45^a)”.
The same measure, in the same setting: then `CN(C)C(=O)N(Cc1c(Cl)ccc(C(=O)c2cnn(C)c2O)c1Cl)c1ccc(Cl)cc1` [Example I-2-25], with “log P = 1.69^a)”; and `CC(C)N(Cc1c(Cl)ccc(C(=O)C2C(=O)CCCC2=O)c1Cl)C(=O)Oc1ccccc1` [Example I-2-42], with “log P = 4.25^a)”.
Still for that read-out and setting: to `CC(C)N(Cc1c(Cl)ccc(C(=O)c2cnn(C)c2O)c1Cl)C(=O)Oc1ccccc1` [Example I-2-43] belongs “log P = 3.19^a)”; to `CCOC(=O)N(Cc1c(Cl)ccc(C(=O)C2C(=O)CCCC2=O)c1Cl)C(C)C` [Example I-2-44], “log P = 3.69^a)”.
`CCOC(=O)N(Cc1c(Cl)ccc(C(=O)c2cnn(C)c2O)c1Cl)C(C)C` [Example I-2-45]: the “log P” value is “log P = 2.69^a)”.
For `CC(C)NC(=O)N(Cc1c(Cl)ccc(C(=O)C2C(=O)CCCC2=O)c1Cl)C1CC1` [Example I-2-56], the “log P” value is listed as “log P = 2.75^a)”.
The same measure, in the same setting: to `CNC(=S)N(Cc1c(Cl)ccc(C(=O)c2cnn(C)c2O)c1Cl)C(C)C` [Example I-2-58] belongs “log P = 1.91^a)”.
As for `CNC(=O)N(C)Cc1c(Cl)ccc(C(=O)C2C(=O)CCCC2=O)c1Cl` [Example I-2-59], the “log P” value is “log P = 1.81^a)”.
Still for that read-out and setting: to `CNC(=O)N(C)Cc1c(Cl)ccc(C(=O)c2cnn(C)c2O)c1Cl` [Example I-2-60] belongs “log P = 1.11^a)”.

Staying with this data set, now noted: reversed-phase HPLC column (C 18); given in the preparation examples, acidic or neutral range not given.
For `O=C(O)c1ccc(Cl)c(OCCCl)c1Cl` [2,4-dichloro-3-(2-chloro-ethoxy)-benzoic acid], the chromatographic logP came to 2.31.
`CCn1ncc(C(=O)c2ccc(Cl)c(OCCNC(=S)NC)c2Cl)c1O` [Example I-2-2, N-(2-{2,6-dichloro-3-[(1-ethyl-5-hydroxy-1H-pyrazol-4-yl)-carbonyl]-phenoxy}-ethyl)-N′-methyl-thiourea] displayed a chromatographic logP of 1.6.
